Experimental data as given in US20250381184A1, “PHARMACEUTICAL COMBINATION COMPRISING AN ANTI-CD3 ANTIBODY AND A CXCR3 ANTAGONIST” (Idorsia Pharmaceuticals Ltd, priority 2022, published 2025).

Columns and labels:
[1] = tested on: CXCR3-expressing CD8+ T cell migration into the BAL; test: LPS-induced lung inflammation model, BAL CXCR3+CD8+ T cells by flow cytometry; assay type: in vivo, Male DBA/1 mice
[2] = COMPOUND plasma concentration in LPS-induced lung inflammation model; assay type: in vivo, Male DBA/1 mice; details: food admix, increasing doses
Experimental: Groups of 11 to 22 mice are given food mixed with different concentrations of COMPOUND (food admix) starting 3 days prior the LPS challenge and continuing during the whole duration of the experiment. The study consists of seven treatment groups: • 1. Control food admix (no COMPOUND), n=22 • 2. Food admix containing 0.006 mg COMPOUND per g food, n=12 • 3. Food admix containing 0.02 mg COMPOUND per g food, n=12 • 4. Food admix containing 0.06/0.07 mg COMPOUND per g food, n=24 • 5. Food admix containing 0.2 mg COMPOUND per g food, n=12 • 6. Food admix containing 0.6 mg COMPOUND per g food, n=11 • 7. Food admix containing 2 mg COMPOUND per g food, n=11
The experiment is terminated at day 3, 72 hours post LPS challenge. BAL is collected and number of T cells expressing CXCR3 quantified by flow cytometry as described in Pouzol et al., Front Pharmacol 2021,12(2991), doi: 10.3389/fphar.2021.748740. Plasma samples are taken for COMPOUND concentration determination.

NOD mice = test: Spontaneous T1D model (NOD mice), blood glucose values; assay type: in vivo; details: for % of reduction from Isotype/vehicle group: BGV at week 40 of age; for efficacy on the BGV: therapeutic setting
Excerpt: The efficacy of COMPOUND and of an anti-CD3 monoclonal antibody alone or in combination, or the combination of an anti-CD3 monoclonal antibody and anti-CXCL10 monoclonal antibody can be determined in inducible and spontaneous mouse models of T1D.
The efficacy of COMPOUND and the anti-CD3 monoclonal antibody alone or in combination can be determined in non-obese diabetic (NOD) mice, a spontaneous model for studying T1D (Chen et al. Front Endocrinol 2018, 9:51).
Blood glucose concentrations may be measured using a dynaValeo glucometer from dynamiCARE.
NOD mice usually develop diabetes defined as a blood glucose value (BGV)≥300 mg/dl between 13 and 30 weeks of age.
Groups of 14 to 17 mice are treated in a therapeutic setting, starting from the first measurement of diabetes (BGV≥300 mg/dL) for each mouse (day 1). Mice are randomized based on BGV and age at treatment initiation in five treatment groups: • Group 1: Isotype injected i.v., q.d., from day 1 to day 3+ control food from day 1 until end of the study (Isotype/vehicle) • Group 2: Isotype injected i.v., q.d., from day 1 to day 3+ food loaded with COMPOUND (0.6 mg/g of food) from day 1 until end of the study (Isotype/COMPOUND) • Group 3: Anti-CD3 antibody (30 μg), i.v., q.d., from day 1 to day 3+ control food from day 1 until end of the study (anti-CD3/vehicle) • Group 4: Anti-CD3 antibody (30 μg), i.v., q.d., from day 1 to day 3+ anti-CXCL10 antibody (100 μg), i.p., from day 4 to day 19 (administrations every 2nd/3rd day, 8 administations in total)+control food from day 1 until end of the study (anti-CD3/anti-CXCL10) • Group 5: Anti-CD3 antibody (30 μg), i.v., q.d., from day 1 to day 3+ food loaded with COMPOUND (0.6 mg/g of food) from day 1 until end of the study (anti-CD3/COMPOUND)
BGVs are assessed on a weekly basis and are compared between Isotype/control food-treated mice (group 1) and mice receiving the different treatments. For each mouse the experiment is terminated when the respective mouse reaches 40 weeks of age.
In this sub-analysis, only the mice not severely hyperglycemic at treatment initiation (defined as 300 mg/dL≤BGV≤400 mg/dL) were included in the study results.

[3] = tested on: patients with severe corticosteroid-refractory ulcerative colitis; details: 15 μg/kg/day reduced to 10 μg/kg/day; cited from earlier work

| Molecule | CXCR3+CD8+ T cell migration into the BAL ([1]; dose 0.6 mg of COMPOUND/g of food) | BAL CXCR3+CD8+ T cells ([1]; preventive setting, food admix 0.006 to 2 mg COMPOUND per g food from 3 days prior LPS, BAL 72 hours post LPS challenge) | COMPOUND plasma concentration [2] | % of reduction from Isotype/vehicle group (NOD mice; NOD mice, n = 14-17/group) [%] | % of reduction from Isotype/vehicle group (NOD mice; non-severe diabetic NOD mice, n = 7-11/group) [%] | efficacy on the BGV (NOD mice; NOD mice) | BGV at week 40 of age (mg/dL) (Mean ± SEM) (NOD mice; NOD mice, treatment from BGV≥300 mg/dL, n = 14-17/group) | BGV at week 40 of age (mg/dL) (Mean ± SEM) (NOD mice; non-severe diabetic NOD mice (300 mg/dL ≤ BGV ≤ 400 mg/dL at treatment initiation), n = 7-11/group) | efficacy on the BGV (NOD mice; non-severe diabetic NOD mice sub-analysis) | mice that showed disease progression (NOD mice; non-severe diabetic NOD mice, end of the study period) [%] | patients demonstrating a clinical response [3] [%] |
| --- | --- | --- | --- | --- | --- | --- | --- | --- | --- | --- | --- |
| Cc1ncn(CC(=O)N2CCN(c3sc(C(F)(F)F)nc3-c3cnc(C(F)(F)F)nc3)C[C@H]2CCO)n1 [COMPOUND, 1-{(R)-2-(2-Hydroxy-ethyl)-4-[2-trifluoromethyl-4-(2-trifluoromethyl-pyrimidin-5-yl)-thiazol-5-yl]-piperazin-1-yl}-2-(3-methyl-[1,2,4]triazol-1-yl)-ethanone] | significantly and maximally reduces | dose-dependent decrease | dose-dependent increase | 9 | 13 | minimal | 540.9 ± 35.4 | 517.3 ± 63.9 | minimal | 86 |  |
| visilizumab: humanized IgG2 anti-CD3 antibody with two point mutations in its Fc portion for FcR non-binding properties (antibody, chains of the INN, looked up, V domains shown) VH: QVQLVQSGAEVKKPGASVKVSCKASGYTFISYTMHWVRQAPGQGLEWMGYINPRSGYTHYNQKLKDKATLTADKSASTAYMELSSLRSEDTAVYYCARSAYYDYDGFAYWGQGTLVTVSS VL: DIQMTQSPSSLSASVGDRVTITCSASSSVSYMNWYQQKPGKAPKRLIYDTSKLASGVPSRFSGSGSGTDFTLTISSLQPEDFATYYCQQWSSNPPTFGGGTKVEIK |  |  |  |  |  |  |  |  |  |  | 84 |
